The source of these data is patent publication US9439979B2, “Epidermal growth factor receptor (EGFR) and methods of use in adenoviral-associated virus type 6 (AAV6) transduction” (priority 2010, dated 2016).

One assay has as its system HEK293T cells. In kind it is cell-based, human. The conditions noted are these: inhibitor 10 μm; for effect on AAV2 transduction of HEK293T cells: same conditions. Here is the method: (§1) AAV transduction and pharmacological inhibition. The 32D and 32D-EGFR cells were transduced with 1.0E4 genomic particle (gp)/cell with each of the AAV serotypes tested. Cells were analyzed for GFP expression by FACS analysis at 96 hours posttransduction. The HEK293T, HN12 and HEp-2 cells, shown to be permissive to AAV2 and/or AAV6, were used to evaluate the specific role of EGFR in AAV-mediated transduction. Cells were incubated at 37° C. in the presence or absence of AG1478 (10 μm) or gefitnib (10 μm) for 30 minutes prior to addition of AAV. AAV2 and AAV6 containing the CMV-NLS-eGFP construct were added at a concentration of 1.0×10^4 gp/ml for 90 minutes.

The next assay has as its system HN12 cells. As to the kind of experiment: AAV transduction and pharmacological inhibition in HN12 cells. The assay is classed as cell-based. The method, then: (§2) In vitro transduction of HEp-2 and HN12 cells with AAV2 and AAV6 in the presence or absence of the EGFR inhibitor, AG1478, was studied. […] Transduction of HN12 cells in the presence of AG1478 was reduced by 77% (***p<0.0005, n=3).
as §1
(§3) Increased expression of EGFR correlates with aggressive head and neck squamous cell carcinoma (HNSCC) tumor growth and resistance to treatment (Thariat, J., et al., Int. J. Clin. Oncol., 12: 99-110 (2007)). The utility of AAV6 to transduce and ablate specific HNSCCs presenting with elevated EGFR expression was assessed by gene-directed enzyme prodrug therapy. Two HNSCC cell lines, HN12 and HEp-2 were selected to represent polarities of EGFR expression.

A further assay has as its system HEp-2 cells. The experiment in a line: AAV transduction and pharmacological inhibition in HEp-2 cells. In kind it is cell-based. Here is the method: as §2, §1, §3

Take `COc1cc2ncnc(Nc3ccc(F)c(Cl)c3)c2cc1OCCCN1CCOCC1` [gefitinib]: the “effect on AAV2 transduction of HEK293T cells” value in the assay on HEK293T cells was “unchanged”.
With AG1478, in the assay on HEK293T cells (30 minutes preincubation, AAV6-CMV-eGFP, FACS 48 hours), the “inhibition of AAV6 transduction of HEK293T cells” value is 50%. Also, the “effect on AAV2 transduction of HEK293T cells” value in the assay on HEK293T cells was “unchanged”. Also, the “reduction of AAV6 transduction of HN12 cells” value in the assay with HN12 cells (in the presence of AG1478 (10 μm), FACS 96 hours) is given as 77%. Moreover, the “effect on AAV2-mediated transduction of HN12 cells” value in the assay with HN12 cells (presence or absence of AG1478) is “no significant (NS) difference”. The “effect on AAV6 transduction of HEp-2 cells” value in the assay on HEp-2 cells (in the presence of AG1478) is reported as “not altered”. Moreover, in the assay with HEp-2 cells (presence or absence of AG1478), the “effect on AAV2-mediated transduction of HEp-2 cells” value is on record as “no significant (NS) difference”.
